Each block holds one molecule with its values, some of them ahead of it.
Columns and labels:
CMV promoter activity = experiment: microbe, parasite or virus in culture; assay type: cell-based; settings: transformed (adenovirus) cells
Source text: This example illustrates data of proliferative activity of various inventive compounds for inducing CMV promoter activity. The CMV promoter assay measures gene transcription and translation activity wherein any active compounds will have cytotoxic activity for inhibiting cellular protein synthesis in transformed (adenovirus) cells. Compound no. […]

mast cell degranulation = experiment: Serotonin release assay for inhibition of mast cell degranulation; assay type: cell-based; settings: Concentration 50 µM
Source text: This assay provides an in vitro model for an allergy and asthma therapeutic product. […]

Balb/3T3 cells = experiment: PDGF-induced proliferation of Balb/3T3 cells; assay type: cell-based, murine
Protocol: Balb/3T3 cells respond vigorously to PDGF stimulation, and are useful in vitro models for further study of PDGF-induced proliferation. Disregulated PDGF-proliferative response has been linked to a variety of diseases, including, e.g., restenosis, atherosclerosis, fibrosis, and tumor cell angiogenesis. Cells were plated in low serum-containing medium for 24 hours prior to stimulation with various concentrations of inventive compound no. 45. PDGF-BB was added at constant 10 µM concentrations. Tritiated thymidine was added and cells harvested for scintillation counting 24 hours later. Figure 15 illustrates a dose response curve from this assay, including an IC50 value of approximately 0.08 µM, exemplifying inhibitory activity of the tested compound.
In another investigation similar to the Balb/3T3 proliferation assay of Example 32, IC50 and ID50 values for inventive compounds nos. 70, 45, 59 and 58 were determined. LD50 values were determined using a cytotoxicity assay, as in Example 32. In these assays, Balb/3T3 cells, stimulated with PDGF and treated with one of the above inventive compounds in a manner identical to the tritiated thymidine procedure above, were incubated instead with a viable dye BCECF, a fluorescent dye. Fluorescence was measured using a fluorescent plate reader. […] Figure 17 illustrates assay results by comparing […] value against LD50 values for the inventive compounds tested. Most compounds tested were non-cytotoxic yet were significant inhibitors of proliferation.
Inventive compounds nos. 77,7 and 78 were added at various concentrations one hour prior to PDGF stimulation. PDGF-BB was added at a constant 10 µM concentrations along with tritiated thymidine. The cells were allowed to incubate for one day, following addition of PDGF and tritiated thymidine. 24 Hours later, the cells were harvested and counted by liquid scintillation counting. Results for compounds nos.77, 7 and 78 are shown in figures 26A, 26B and 26C, respectively. Background counts were approximately 1% of control levels.
Results obtained for compound no. 50 in the PDGF-induced proliferation of Balb/3T3 cells (Example 32), reported in figure 28, illustrate the inhibitive properties of this compound on proliferation induced by PDGF, representing significant inhibition at concentrations as low as 2 µM. […] 50, are capable of reducing tumor cell growth by blocking oncogene-induced events.
Figure 66 reports that inventive compound no. 45 inhibited PDGF-induced murine BALB/3T3 proliferation. Procedurally, cells were rested overnight in 0.2% serum and stimulated with 25 ng/ml PDGF. Compound no. 45 was added 1 hour prior to stimulation. Cells were pulsed with ^3H-TdR 24 hours later and harvested for scintillation counting 4 hours later.
Figures 66A and 66B are a dose response and cytoxicity curves, respectively, for inhibition of proliferation in Balb/3T3 cells by inventive compound no. 58. In the assay protocol, cells were starved overnight in 0.5% serum containing medium, followed by stimulation with 20 ng/ml PDGF for 24 hours. The cells were labeled with ^3H-TdR for 4 hours and harvested and counted by scintillation. Figure 66B illustrates that inventive compound no.
Figure 68 illustrates an effect of the delayed addition of inventive compound no. 58 to Balb/3T3 proliferation in response to PDGF-BB. Cells were stimulated with PDGF (20 ng/ml) and inventive compound no. 58 added either simultaneous with PDGF (0) or at various times after addition of PDGF, up to 6 hours later. At 24 hours, the cells were pulsed with ^3H-TdR and counted by scintillation four hours later. […] 58 was added as late as 20 hours after PDGF.
Figure 69 illustrates that inventive compound no. […] In the assay protocol, cells were serum starved for 24 hours before adding either 20 ng/ml PDGF or 10% serum. The cells were pulsed with ^3HTdR 24 hours later. Inventive compound no.

[1] = test system: murine thymocyte proliferation; experiment: Thymocyte proliferation co-stimulated by ConA and IL-2 (tritiated thymidine); assay type: cell-based, Balb/C mice; settings: Mus musculus, Thymocyte, 96 h; ConA and IL-2 (15 U/ml), 4 days
Protocol: (§1) ConA, used to activate CD3, induces T-cell proliferation and differentiation. Thymuses, obtained from normal, female Balb/C mice, were dissociated and plated into 96-well plates at a density of 2 x 10^5 cells/well. ConA (0.25 mg/ml) and IL-2 (15 U/ml) were added to the wells. The cells were incubated for 4 days at 37°C. On day 4, the cells were pulsed with tritiated thymidine and incubated for an additional 4 hours. The amount of tritiated thymidine dye incorporated by the harvested cells was determined in a liquid scintillation counter. Drug doses (shown in figs. 1A and 1B) were added two hours prior to ConA and IL-2 activation.
as §1, with “Thymuses,” for “ConA, used to activate CD3, induces T-cell proliferation and differentiation. Thymuses,”, “37 °C.” for “37°C.”, “Doses” for “Drug doses”, “26A, 26B” for “1A”, “26C)” for “1B)”
In another in vitro protocol, thymocyte proliferation was induced by sub-mitogenic doses of Con A (0.25 µg/ml) and IL-2 (20 ng/ml). Cells were stimulated for 96 hours, prior to addition of ^3H-TdR for 4 hours. The cells were harvested and incorporation of ^3H-TdR was determined.
45 on co-stimulated thymocyte proliferation. In an assay procedure, murine thymocytes were stimulated with ConA and IL-2 with 1 µM compound no. 45 added either 1 hour prior to IL-2 (-1), simultaneous with IL-2 (0) or at various times following IL-2 addition (1-92 hour). At 92 hours the thymocytes were pulsed with ^3H-TdR, harvested and counted by scintillation 4 hours later.

Human stromal cells = experiment: Stromal cell proliferation in response to PDGF-BB; assay type: cell-based; settings: 50 ng/ml PDGF-BB
Protocol: This assay is useful for predicting therapeutic activity for preventing or treating restenosis, atherosclerosis and coronary artery disease. Human stromal cells were starved in serum-free media for one day and then stimulated with 50 ng/ml PDGF-BB. Inventive compounds, at various concentrations, were added one hour prior to PDGF stimulation. PDGF and tritiated thymidine were added and the cells allowed to incubate for one day, following addition of the PDGF and thymidine. 24 Hours later, the cells were harvested and counted by liquid scintillation counting. Results for compounds nos. Background counts (i.e., starved cells) were approximately 1% of control levels. […] 30, 28, 29, 32 and 31, respectively.

[2] = test system: proliferative PMBC response to allogeneic stimulation; experiment: Two-way mixed lymphocyte reaction; assay type: cell-based; settings: Lymphocyte; figs. 2A-2C
Source text: This example illustrates therapeutic potential for various autoimmune and inflammatory diseases of the inventive compounds by comparing potency (inhibitive activity) with cytotoxicity data obtained using the following indicative assay procedures. In a mixed lymphocyte reaction assay of compounds nos. […] Compounds nos. […] 2A and 2B. Both compounds nos. […] 2C.
Compound no. […] Compound no.

[3] = test system: THP-1 cell adhesion to IL-1-activated HUVEC; experiment: THP-1 cell adhesion to activated HUVEC; assay type: cell-based, human; settings: IL-1 (10 ng/ml), 8 hours
Protocol: This example illustrates inhibitive activity of compounds nos. 50 and 57 on THP-1 cell adhesion to IL-1-activated HUVEC. In an investigative assay, HUVEC were stimulated with IL-1 (10 ng/ml), both in the absence and presence of varying concentrations of drugs for 8 hours in a 96-well microtiter plate. In the wellplate, human monocytic leukemia cell line THP-1 cells were added at 50,000 cells per well. The THP-1 cells were pre-incubated with BCECF, a fluorescence dye that can be used to measure cell number using a fluorescence plate reader. After 10 minutes at 37 °C, the microtiter plate was inverted and spun at 900 rpm. The remaining adhering THP-1 cells were then analyzed.
Inventive compound no. […] HUVEC were stimulated with 20 ng/ml IL-1β or 15 ng/ml TNFα for 6 hours. Fluorescence labeled (BCECF-AM) THP-1 cells were allowed to adhere to the HUVEC for 20 minutes, washed once and the amount of fluorescence remaining analyzed on a fluorescence plate reader. The results, reported in figures 62A and 62B (TNFα or IL-1β, respectively), show inhibition of THP-1 adhesion to HUVEC.
Figures 72A and 72B illustrate that inventive compound no. 58 inhibited THP-1 cell adhesion to either TNF or IL-1-stimulated HUVEC, respectively. Procedurally, HUVEC were stimulated with TNF or IL-1 for 8 hours and THP-1 cells added for 20 minutes. The HUVEC were then washed and analyzed for adherence. Inventive compound no. 58 inhibited adhesion of THP-1 cells to HUVEC with an IC50 of approximately 1 µM for both TNF and IL-1.

[4] = test system: murine cytotoxic T-cell line, CT6; experiment: Cytokine-induced proliferation of the cytotoxic T-cell line CT6 / CT-6.1; assay type: cell-based; settings: added one hour prior to IL-2, thymidine at 48 hours
Protocol: Another assay in this example was used to determine inhibitive activity of the inventive compounds on direct IL-2-induced proliferation in a murine cytotoxic T-cell line, CT6. The CT6 cell line is an IL-2-dependent cell line. IL-2 was removed from the medium for 24 hours prior to stimulation. […] 49, 50, 45, 43 or 41 were added at various concentrations. The cells were stimulated with IL-2 and amount of tritiated thymidine dye incorporated was measured 48 hours later.
In another related assay, inhibitory effects on CT6 cell proliferation is examined. CT6 cells are a murine IL-2 dependent, cytotoxic T cell line that proliferate in response to murine IL-2 (15 U/ml).
CT-6.1 cells were starved overnight and stimulated with IL-2 (20 ng/ml). Twenty hours later, cells were labeled for 4 hours with ^3H-TdR and counted by liquid scintillation.
CT6.1 cells were cultured with IL-2 with or without the addition of inventive compound no. 45 (2 µM) and viable cells counted for up to 8 days. On day 4, two cultures previously incubated with compound no. 45, were washed and recultured with fresh IL-2 with or without compound no. 45 (2 µM).
Procedurally, CT-6.1 cells were starved overnight and stimulated with either IL-2 (20 ng/ml), IL-4 (50 ng/ml) or IL-7 (25 ng/ml). ^3H-TdR was added at 20 hours, cells were harvested 4 hours later, and the incorporation of ^3H-TdR was determined.

IC50 (CMV promoter activity): > 500 µM
Structure (SMILES): CCCNCC(O)CCCCn1c(=O)ccn(C)c1=O (stereo not drawn) [compound no. 19, 3-(5-hydroxy-6-(N-propyl)aminohexyl)-1-methyluracil]
% Inhibition (mast cell degranulation): inactive

Structure (SMILES): CCCCCCCCNCC(O)CCCCCCCCCN(C)C(C)=O (stereo not drawn) [compound no. 77]
inhibition of PDGF-induced proliferation (Balb/3T3 cells): inhibit Balb/3T3 proliferation

Structure (SMILES): CCCCCCCCNCC(O)CCCCCCCCC(=O)O (stereo not drawn) [compound 78, 11-Octylamino-10-hydroxyundecanoic acid]
IC50 [1]: 12.4 µM | inhibition of PDGF-induced proliferation (Balb/3T3 cells): inhibit Balb/3T3 proliferation

IC50 (CMV promoter activity): > 100 µM
Structure (SMILES): Cn1cnc2c1c(=O)n(CCCCC(O)CNCCCCCCO)c(=O)n2C (stereo not drawn) [compound no. 32, 1-(5-hydroxy-6-(N-(6-hydroxy)hexyl)aminohexyl)-3,7-dimethylxanthine]
IC50 (Human stromal cells): > 50 µM

Structure (SMILES): CCCCCCCCNCC(O)CCCCCCCCCO (stereo not drawn) [compound no. 7, 1-Octylamino-2,11-undecadiol]
inhibition of PDGF-induced proliferation (Balb/3T3 cells): inhibit Balb/3T3 proliferation

IC50 (CMV promoter activity): > 500 µM
Structure (SMILES): CCCNCC(O)CCCCNC(=O)CCCC(=O)NCCC (stereo not drawn) [compound no. 5, N^2-(5-hydroxy-6-(N^3-propyl)aminohexyl)-(N^1-propyl)glutaric acid]
IC50 [2]: > 250 µM

Structure (SMILES): Cn1cnc2c1c(=O)n(CCCCCCCCCC(O)CNCc1ccc(N)cc1)c(=O)n2C (stereo not drawn) [compound 57, 1-[11-(4-Aminobenzylamino)-10-hydroxyundecyl]-3,7-dimethylxanthine]
inhibition of THP-1 adhesion [3]: significantly inhibited THP-1 adhesion, even at low concentratations

Structure (SMILES): CCCCCCCCNCC(O)CCCCCCCCC(=O)NC (stereo not drawn) [compound 79, 11-Octylamino-10-hydroxyundecanoic acid N-methyl amide]
IC50 [1]: 10.6 µM

IC50 (CMV promoter activity): > 100 µM
Structure (SMILES): Cn1cnc2c1c(=O)n(CCCCC(O)CNCC1CCCCC1)c(=O)n2C (stereo not drawn) [compound no. 31, 1-(5-hydroxy-6-(N-cyclohexylmethyl)aminohexyl)-3,7-dimethylxanthine]
IC50 (Human stromal cells): > 50 µM

Structure (SMILES): CCCCCCCCNCC(O)CCCCCCCCC(=O)N(C)C (stereo not drawn) [compound 80, 11-Octylamino-10-hydroxyundecanoic acid N,N-dimethyl amide]
IC50 [1]: 3.8 µM

IC50 (CMV promoter activity): > 100 µM
Structure (SMILES): Cn1cnc2c1c(=O)n(CCCCC(O)CNCCCCc1ccccc1)c(=O)n2C (stereo not drawn) [compound no. 29, 1-(5-hydroxy-6-(N-(4-phenyl)butyl)aminohexyl)-3,7-dimethylxanthine]
IC50 (Human stromal cells): 40 µM

Structure (SMILES): CCCCCCCCCCNCC(O)CCCCCCCn1c(=O)c2c(ncn2C)n(C)c1=O (stereo not drawn) [compound 41, 1-(9-Decylamino-8-hydroxynonyl)-3,7-dimethylxanthine]
inhibition of direct IL-2-induced proliferation [4]: inhibited direct IL-2-induced CT6 proliferation

Structure (SMILES): CCCCCCCCCCCCCCNCC(O)CCCCCCCn1c(=O)c2c(ncn2C)n(C)c1=O (stereo not drawn) [compound 43, 1-(9-Tetradecylamino-8-hydroxynonyl)-3,7-dimethylxanthine]
inhibition of direct IL-2-induced proliferation [4]: inhibited direct IL-2-induced CT6 proliferation

IC50 (CMV promoter activity): > 500 µM
Structure (SMILES): CCCNCC(O)CCCCn1c(=O)c(C)cn(C)c1=O (stereo not drawn) [compound no. 26, 3-(6-Propylamino-5-hydroxyhexyl)-1-methylthymine]
IC50 [2]: > 250 µM
